According to patent publication US11021444B2, “Antiviral compounds” (priority 2013, dated 2021):
Read-outs that look alike come from different tables or passages of the source.

Assays:
[1] = tested on: Respiratory Syncytial Virus (RSV) long strain; assay: microbe, parasite or virus in culture; type: cell-based; conditions: human respiratory syncytial virus, Tables A and B list compounds by EC50 band
Method in brief: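 HEp-2 cells infected with 100 TCID50 virus per well, compounds in duplicate, 9-point 1/3 dilutions from 100 μM or 1 μM, 1% DMSO. After 5 days at 37 °C, cell viability (CPE protection) read by CCK-8 absorbance at 450 nm, 630 nm background.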

[2] = Cytotoxicity Determination (CCK-8, without addition of virus); type: cell-based; conditions: human, 50% cytotoxicity concentration (CC50)
Method in brief: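 HEp-2 cells were seeded at 1,500 cells/well one day before compound addition. Compounds were tested without virus in duplicate over 7 points from 100 μM in 1/2 steps, with 1% final DMSO, 5 days at 37 °C, 5% CO2. Viability was read by CCK-8 after 3-4 hours.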

recombinant RSV complex = recombinant RSV complex (Human respiratory syncytial virus A, UniProt P28887); assay: RSV Polymerase Inhibition Assay; type: biochemical
Method in brief: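 10 nM recombinant RSV polymerase complex in Tris-HCl pH 7.5, 6 mM MgCl2 with RNA oligonucleotide template and radionucleotides, incubated 2 h at 30 °C with increasing inhibitor concentrations. Reaction stopped with EDTA; radiolabeled RNA product counted by scintillation.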

RSV replicon = assay: microbe, parasite or virus in culture; type: cell-based; conditions: human respiratory syncytial virus, read-out: EC50, the concentration of the drug required for reducing RSV replicon RNA by 50%
Description: The Renilla Luciferase Assay System (Promega, Cat. #E2820) was used to measure anti-RSV replicon activity. […] Luminescence was recorded using a Perkin Elmer multilabel counter Victor3V. EC50, the concentration of the drug required for reducing RSV replicon RNA by 50% in relation to the untreated cell control value, was calculated from the plot of percentage reductions of the optical density (OD) value against the drug concentrations using the Microsoft Excel forecast function.

[3] = HEp-2, 120 h, read-out: 50% effective concentration (EC50), HEp-2 cells infected with RSV long strain, 5 days, CCK-8 readout
[4] = 120 h, read-out: 50% effective concentration (EC50), HEp-2 cells infected with RSV long strain, 5 days, CCK-8 readout

Sequence of recombinant RSV complex (P28887 whole entry): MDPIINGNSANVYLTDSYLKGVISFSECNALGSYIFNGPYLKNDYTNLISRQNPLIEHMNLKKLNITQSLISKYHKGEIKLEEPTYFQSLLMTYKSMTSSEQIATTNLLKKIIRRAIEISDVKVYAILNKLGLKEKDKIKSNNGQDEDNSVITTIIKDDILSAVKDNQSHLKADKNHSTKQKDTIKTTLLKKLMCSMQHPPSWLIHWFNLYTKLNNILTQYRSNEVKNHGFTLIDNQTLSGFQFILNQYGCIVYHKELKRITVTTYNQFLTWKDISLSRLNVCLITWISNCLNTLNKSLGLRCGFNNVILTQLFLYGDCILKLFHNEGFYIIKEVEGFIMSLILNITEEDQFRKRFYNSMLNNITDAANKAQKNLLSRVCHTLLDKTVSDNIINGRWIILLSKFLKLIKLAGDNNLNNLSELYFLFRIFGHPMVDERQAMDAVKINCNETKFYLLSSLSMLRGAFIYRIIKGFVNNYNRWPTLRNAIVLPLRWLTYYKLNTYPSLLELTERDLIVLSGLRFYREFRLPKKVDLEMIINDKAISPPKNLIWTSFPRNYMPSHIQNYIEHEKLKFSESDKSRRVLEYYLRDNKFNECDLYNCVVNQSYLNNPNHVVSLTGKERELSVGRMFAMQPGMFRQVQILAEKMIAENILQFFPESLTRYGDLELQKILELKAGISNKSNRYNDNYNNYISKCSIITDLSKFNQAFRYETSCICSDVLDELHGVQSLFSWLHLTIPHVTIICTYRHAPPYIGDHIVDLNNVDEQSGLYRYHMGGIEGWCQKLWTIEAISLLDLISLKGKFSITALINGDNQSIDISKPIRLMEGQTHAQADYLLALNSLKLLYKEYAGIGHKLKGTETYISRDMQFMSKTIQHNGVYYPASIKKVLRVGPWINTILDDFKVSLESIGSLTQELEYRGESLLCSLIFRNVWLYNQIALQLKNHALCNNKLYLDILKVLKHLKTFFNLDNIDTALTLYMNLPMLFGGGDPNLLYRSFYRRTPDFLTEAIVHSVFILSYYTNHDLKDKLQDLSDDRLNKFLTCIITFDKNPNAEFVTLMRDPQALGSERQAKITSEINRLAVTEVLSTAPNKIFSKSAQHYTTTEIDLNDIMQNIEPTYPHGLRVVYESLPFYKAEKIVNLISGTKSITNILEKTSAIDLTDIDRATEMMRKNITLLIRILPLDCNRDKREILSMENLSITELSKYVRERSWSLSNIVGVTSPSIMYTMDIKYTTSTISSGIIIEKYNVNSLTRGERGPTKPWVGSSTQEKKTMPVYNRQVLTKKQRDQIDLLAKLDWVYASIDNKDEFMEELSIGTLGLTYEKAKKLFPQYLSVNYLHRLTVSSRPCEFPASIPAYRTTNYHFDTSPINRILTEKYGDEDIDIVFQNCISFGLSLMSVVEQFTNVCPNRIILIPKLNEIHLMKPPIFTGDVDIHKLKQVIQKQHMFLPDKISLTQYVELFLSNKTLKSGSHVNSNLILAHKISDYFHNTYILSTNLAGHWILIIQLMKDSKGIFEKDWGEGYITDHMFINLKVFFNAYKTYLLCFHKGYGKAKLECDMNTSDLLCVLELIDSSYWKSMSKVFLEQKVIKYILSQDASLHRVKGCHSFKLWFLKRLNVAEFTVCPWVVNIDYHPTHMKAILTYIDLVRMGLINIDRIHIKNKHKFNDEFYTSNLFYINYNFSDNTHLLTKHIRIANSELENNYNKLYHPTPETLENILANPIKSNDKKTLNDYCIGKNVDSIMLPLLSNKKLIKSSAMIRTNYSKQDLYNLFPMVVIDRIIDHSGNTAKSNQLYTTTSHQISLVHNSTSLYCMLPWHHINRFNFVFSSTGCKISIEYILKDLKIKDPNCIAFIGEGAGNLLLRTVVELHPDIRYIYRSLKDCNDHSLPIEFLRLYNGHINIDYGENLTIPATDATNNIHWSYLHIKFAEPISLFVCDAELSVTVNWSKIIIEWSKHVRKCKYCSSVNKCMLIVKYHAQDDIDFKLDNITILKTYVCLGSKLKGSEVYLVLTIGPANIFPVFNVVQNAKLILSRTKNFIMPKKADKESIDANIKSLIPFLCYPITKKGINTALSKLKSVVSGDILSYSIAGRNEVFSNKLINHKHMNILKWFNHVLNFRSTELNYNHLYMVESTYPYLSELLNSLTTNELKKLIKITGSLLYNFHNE
Sequence of recombinant RSV complex (P03421 whole entry, further chain): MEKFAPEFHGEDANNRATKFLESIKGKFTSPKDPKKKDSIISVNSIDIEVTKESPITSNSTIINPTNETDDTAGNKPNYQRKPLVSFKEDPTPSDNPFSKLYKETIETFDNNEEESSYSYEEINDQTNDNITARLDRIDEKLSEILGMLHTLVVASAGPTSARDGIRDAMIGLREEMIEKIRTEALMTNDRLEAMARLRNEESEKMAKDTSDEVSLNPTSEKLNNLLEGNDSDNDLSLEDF

SMILES | EC50 [1, 3] [nM] | CC50 at 5 days [2] [nM] | IC50 (recombinant RSV complex) [nM] | EC50 (RSV replicon) [nM] | EC50 [1, 4] [nM]
COc1cc(C(=O)NC[C@](O)(c2cc(C(C)(C)N)cc(-c3ccc(F)cc3)n2)C(F)(F)F)ccc1OCCO [Compound 554] | < 1000 | 10000 to 100000 | < 1000 | < 1000 | 
COc1cc(C(=O)NCC(O)(c2cc3c(c(-c4ccc(F)cc4)n2)OCC3(C)N)C(F)(F)F)ccc1OC[C@@H](C)O (stereo partly shown) [Compound 556] | < 1000 | 10000 to 100000 | < 1000 | < 1000 | 
COc1cc(C(=O)NCC(O)(c2cc(C(C)(C)N)cc(-c3ccnc(Cl)c3)n2)C(F)(F)F)ccc1OC1CC1 (stereo not shown) [Compound 558] | < 1000 | 10000 to 100000 | < 1000 | < 1000 | 
COc1cc(C(=O)NCC(O)(c2cc3c(c(-c4ccc(F)cc4)n2)OCC3(N)C(C)C)C(F)(F)F)ccc1OC1CC1 (stereo not shown) [Compound 560] |  | 10000 to 100000 | < 1000 | < 1000 | < 1000
COc1cc(C(=O)NC[C@@](O)(c2cc(C(C)(C)N)cc(-c3ccc(F)cc3)n2)C(F)(F)F)ccc1OCC(N)=O [Compound 561] | 1000 to 50000 | > 100000 | < 10000 | < 1000 | 
COc1cc(C(=O)NC[C@](O)(c2cc(C(C)(C)N)cc(-c3ccc(F)cc3)n2)C(F)(F)F)ccc1OCC(N)=O [Compound 562] | < 1000 | > 100000 | < 1000 | < 1000 | 
COc1cc(C(=O)NCC(O)(c2cc([C@@]3(C)CCN3)cc(-c3ccc(F)c(Cl)c3)n2)C(F)(F)F)ccc1OC1CC1 (stereo partly shown) [Compound 563] | < 1000 | 10000 to 100000 | < 1000 | < 1000 | 
CC(C)(N)c1cc(-c2ccc(F)cc2)nc(C(O)(CNC(=O)c2ccc3c(c2)CC(=O)N3)C(F)(F)F)c1 (stereo not shown) [Compound 571] | < 1000 | 10000 to 100000 | < 1000 | < 1000 | 
COc1cc(C(=O)NCC(C)(O)c2cc(C(C)(C)N)cc(-c3ccc(F)cc3)n2)ccc1OC1CC1 (stereo not shown) [Compound 574] | < 1000 | 10000 to 100000 | < 1000 | < 1000 | 
COc1cc(C(=O)NCC(O)(c2cc(C(C)(C)NC3CCC3)cc(-c3ccc(F)c(Cl)c3)n2)C(F)(F)F)ccc1OC1CC1 (stereo not shown) [Compound 575] | < 1000 | 10000 to 100000 | < 1000 | < 1000 | 
COc1cc(C(=O)NCC(O)(c2cc(C(C)(C)NC3COC3)cc(-c3ccc(F)c(Cl)c3)n2)C(F)(F)F)ccc1OC1CC1 (stereo not shown) [Compound 577] | < 1000 | 10000 to 100000 | < 1000 | < 1000 | 
COc1cc(C(=O)NCC(O)(c2cc(C(C)(C)NC(C)=N)cc(-c3ccc(F)c(Cl)c3)n2)C(F)(F)F)ccc1OC1CC1 (stereo not shown) [Compound 579] | < 1000 | 10000 to 100000 | < 1000 | < 1000 | 
COc1cc(C(=O)NCC(O)(c2cc(C(C)(C)N)cc(-c3ccc(F)cc3)n2)C(F)(F)F)ccc1OCC(N)=O (stereo not shown) [Compound 580] |  | > 100000 | < 1000 | < 1000 | < 1000
COc1cc(C(=O)NCC(O)(c2cc(C(C)(C)N)cc(-c3ccc(F)cc3)n2)C(F)(F)F)ccc1OC[C@@H](C)O (stereo partly shown) [Compound 586] | < 1000 | 10000 to 100000 | < 1000 | < 1000 | 
COc1cc(C(=O)NCC(O)(c2cc(C(C)(C)N)c(OC)c(-c3ccc(F)cc3)n2)C(F)(F)F)ccc1OC1CC1 (stereo not shown) [Compound 594] | < 1000 | 10000 to 100000 | < 1000 | < 1000 | 
COc1cc(C(=O)NCC(O)(c2cc(C3(N)COC3)cc(-c3ccc(F)cc3)n2)C(F)(F)F)ccc1OC1CC1 (stereo not shown) [Compound 595] | < 1000 | 10000 to 100000 | < 1000 | < 1000 | 
COc1cc(C(=O)NCC(O)(c2cc(C(C)(C)N)cc(-c3ccc(F)cc3)n2)C(F)(F)F)ccc1OC1CC(O)C1 (stereo not shown) [Compound 596] | < 1000 | 10000 to 100000 | < 1000 | < 1000 | 
COc1cc(C(=O)NCC(O)(c2cc(C3(N)CC3)cc(-c3ccc(F)cc3)n2)C(F)(F)F)ccc1OC[C@@H](C)O (stereo partly shown) [Compound 598] | < 1000 | 10000 to 100000 | < 1000 | < 1000 | 
COc1cc(C(=O)NCC(O)(c2cc(C(C)(C)NC(C)=O)cc(-c3ccc(F)cc3)n2)C(F)(F)F)ccc1OCCO (stereo not shown) [Compound 611] | < 1000 | > 100000 | < 1000 | < 1000 | 
